# Laboratory results from patent US7094868B2, “Peptides for recognition and targeting of GLIAL cell tumors” (Auburn University, priority 2002, dated 2006).
# Assays:
# CTX TNA2 astrocytes = assay: Evaluation of binding selectivity: phage output/input titer on normal astrocytes; type: cell-based, rat; settings: for binding selectivity, RG2 glioma versus normal astrocytes: cell-attached phage recovered by elution, FIGS. 7, 10
# Description: (§1) All analyses were performed in triplicate.
# F98 glioma cells = assay: Evaluation of binding selectivity: phage output/input titer on F98 glioma; type: cell-based, rat; settings: eluted phage
# Description: as §1
# RG2 glioma cells [1] = assay: Evaluation of binding selectivity: phage output/input titer, RG2 glioma versus control cell lines overall; type: cell-based, rat
# Description: as §1
# [2] = system: human glioma cell lines SW1088, M059K, A172, and HS 683; assay: Phage clone binding to human glioma cell lines; type: cell-based; settings: A172, HS 683
# Description: The ELRGDSLP phage clone was tested further for binding to four different human glioma cell lines: SW1088, M059K, A172, and HS 683, all obtained from the ATCC.
# αv, β3, and β1 integrins = assay: Affinity precipitation of RG2 cell membrane proteins with cross-linked phage, Western blot with anti-integrin antibodies; type: binding, rat
# Description: Experiments were performed to isolate and purify the RG2-cell-specific protein that was responsible for binding of the ELRGDSLP phage clone to glioma cells. The basic approach was to perform precipitation of RG2 cell membrane proteins by using the phage clone to form an affinity matrix.
# To prepare the RG2 cell membrane proteins, RG2 glioma cells were grown in 25 cm^2 tissue culture flasks. The growing medium was removed from the flasks and cells were collected in PBS buffer containing protease inhibitors. Cells were then pelleted by centrifugation and lysed with octylglucoside buffer (10 mM Tris-HCl, pH 7.5, 140 mM NaCl, 10 mM octylglucoside (Sigma), and protease inhibitor cocktail (Sigma); 5 ml per flask). The cell lysate was clarified by centrifugation and the supernatant containing cell membrane proteins was then used for isolation of glioma-specific receptor proteins.
# Cross-linked phage were prepared by the method of Smith et al. (1998) (J. Immunol. Methods 215: 151–161) using a water-soluble, multifunctional dextran polymer. After that, ELRGDSLP cross-linked phage were incubated with the clarified lysate of RG2 cells. Following incubation, the crosslinked phage-receptor protein complexes were pelleted by centrifugation at 10,000 rpm for 15 minutes. Phage particles that were not cross-linked remained in the buffer and were discarded. […]
# RG2 glioma cells [3] = assay: Quantitation of binding specificity: phage output/input titer on RG2 glioma cells; type: cell-based, rat; settings: cell-surface-bound phage eluted with low pH buffer; 10^9 cfu/flask, 1 hour, room temperature; FIG. 3
# Description: as §1
# [4] = system: BRL 3A hepatocytes, H9c2(2-1) cardiac myoblasts, 27FR fibroblasts; settings: cell-attached phage recovered by elution; FIGS. 4, 7, 10
# Description: In order to evaluate the binding specificity conferred by the peptides, various phage clones were incubated with RG2 glioma cells. Two control phage were compared to the RG2 affinity-selected candidate phage clones (see FIG. 3). […] For the quantitation assay, RG2 cells were grown in 25 cm^2 flasks for approximately 48 hours to sub-confluence. One hour prior to application of phage, the normal media was replaced with serum-free media and incubation was continued. Each phage clone (10^9 cfu/flask) was added to a flask of cells in 2 ml of washing/blocking buffer and incubated for 1 hour at room temperature. Following incubation, unbound phage were removed by washing the cells remaining in the flasks 8 times with 4 ml of cold washing/blocking buffer for 5 minutes per wash. Cell surface-bound phage were recovered by incubation with 1 ml of elution buffer for 10 minutes on ice. The eluate was removed from flasks and neutralized with 1 M Tris. Cells were washed again two times with washing/blocking buffer and lysed by incubation with 1 ml lysis buffer for 30 min at room temperature; the lysate was processed as above. Phage titers were determined by infection of bacteria and are presented in FIG. 3 as a ratio of output to input phage. All analyses were performed in triplicate. […]
sequence,measurement,setting,value
DLTKSTAP [phage clone displaying the synthetic peptide on major coat protein pVIII],"binding selectivity, RG2 glioma versus normal astrocytes",CTX TNA2 astrocytes,approximately 14 fold
DSTKSGNM [phage clone displaying the synthetic peptide on major coat protein pVIII],binding to F98 glioma compared to RG2 glioma (in words),F98 glioma cells; FIG. 7,even better binding
same,"binding selectivity, RG2 glioma versus normal astrocytes",CTX TNA2 astrocytes,25 fold
DYDMTKNT [phage clone displaying the synthetic peptide on major coat protein pVIII],binding selectivity for glioma cells compared to control cells (in words),"RG2 glioma cells [1]; RG2 and F98 glioma, astrocytes, myoblasts, hepatocytes, fibroblasts",very selective binding
ELRGDSLP [phage clone displaying the synthetic peptide on major coat protein pVIII],output/input phage ratio compared between ELRGDSLP and ESRGDSYA phage clones,"RG2 glioma cells [1]; lysis, FIGS. 5 and 11",significantly lower
same,binding to human glioma cell lines (in words),[2],pronounced glioma-specific binding properties
same,signal with anti-integrin antibodies in phage-purified protein eluate,"αv, β3, and β1 integrins",did not produce any positive signal
VDLPQHGQ [phage clone displaying the synthetic peptide on major coat protein pVIII],ratio of output to input phage (apparent binding affinity) on RG2 glioma cells,RG2 glioma cells [3],highest
VGLPEHTQ,binding to F98 glioma as % of RG2-binding level,F98 glioma cells; FIG. 4,41%
same,ratio of output to input phage (apparent binding affinity) on RG2 glioma cells,RG2 glioma cells [3],highest
same,binding to normal astrocytes as % of RG2-binding level,"CTX TNA2 astrocytes; eluted phage, FIG. 4",64%
same,"binding selectivity, RG2 glioma versus hepatocytes, myoblasts and fibroblasts",[4],approximately 5 fold
